Like-named read-outs stand apart in the source and are kept apart here.
Biological target: T1, human KISS-receptor (Homo sapiens, UniProt Q969F8)
T1 construct: expressed in transfected cells; host or cells: CHO-k1 cells that also express mitochondrially targeted aequorin, Gα16 and an NFAT-luciferase reporter
Assay: NFAT-regulated luciferase reporter gene assay in CHO-k1 cells, agonist activity
Assay type: cell-based

[1] = pEC50 serum, presence of 20% human serum
[2] = absence of human serum, read-out: pEC50 (converted)
[3] = presence of 20% human serum, read-out: pEC50 serum (converted)

T1 sequence (Q969F8 whole entry): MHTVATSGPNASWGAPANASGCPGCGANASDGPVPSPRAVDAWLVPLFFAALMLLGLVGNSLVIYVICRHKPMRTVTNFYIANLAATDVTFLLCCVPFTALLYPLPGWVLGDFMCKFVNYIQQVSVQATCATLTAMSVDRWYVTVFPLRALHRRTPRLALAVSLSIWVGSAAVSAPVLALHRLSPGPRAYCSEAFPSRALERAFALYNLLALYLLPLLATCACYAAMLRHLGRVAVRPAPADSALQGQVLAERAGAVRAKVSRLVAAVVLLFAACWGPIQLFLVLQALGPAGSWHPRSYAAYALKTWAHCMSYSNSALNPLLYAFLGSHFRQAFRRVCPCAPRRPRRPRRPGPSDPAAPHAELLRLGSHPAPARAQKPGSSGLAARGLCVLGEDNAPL
Procedure: CHO-k1 cells were used that expressed the mitochondrially targeted aequorine and Gα16 (from Euroscreen, Brussels, Belgium), a Nuclear Factor of Activated T-cells-responsive element (NFAT) under the control of a promoter directing the expression of a firefly luciferase reporter gene (pNFAT-TALuc obtained from Clontech, Mountain View, Calif.), and the human GPR54-R Hygro(+)-hGPR54WT c4; MSD). These cells were cultured in Dulbecco's Modified Eagle Medium: Nutrient Mixture F-12 (DMEM/F12) (Invitrogen, Carlsbad, Calif.), supplemented with 10% (vol/vol) filtered bovine serum (Hyclone, Thermo Fisher Scientific, Waltham, Mass.), 100 U/ml penicillin G, 100 μg/ml streptomycin, 400 μg/ml Geneticin and 400 μg/ml Hygromycin (Invitrogen). […] Kisspeptin-10 was used as a standard. […] When the conjugates were tested in the presence of a final percentage of 20% human serum, 10 μl assay medium containing 60% human serum (Sigma-Aldrich, #H4522) was added to the wells. In the absence of human serum, 10 μl of assay medium was added. Cells were harvested and diluted to a concentration of 7.5E5 cells/ml in assay medium without 0.1% BSA. 10 μl of cell solution was added to the compound wells. After incubation for 4 hours in a humidified atmosphere at 5% CO2 and 37° C., the plate was left at room temperature for 30 minutes. Subsequently, 15 μl of Steadylite™ solution (PerkinElmer, Boston, Mass.) was added and the cells, protected from light, were allowed to lyse for 30 min at room temperature. Luminescence, indicated as relative luminescence units (RLU), was measured on an Envision Multilabel reader (PerkinElmer).

Compound	EC50 [2]	EC50 [3]	EC50 (pEC50, absence of human serum)	EC50 [1]
CNC(=N)NCCC[C@H](NC(=O)[C@H](CC(C)C)NC(=O)NNC(=O)[C@H](Cc1ccccc1)NC(=O)[C@@H](NC(=O)[C@H](CC(N)=O)NC(=O)[C@H](Cc1c[nH]c2ccccc12)NC(=O)[C@H](CC(N)=O)NC(=O)[C@@H](Cc1ccc(O)cc1)NC(=O)CSCCC(=O)NCCOCCOCCOCCO[C@H]1[C@H](OC)[C@@H](OC)[C@@H](O[C@H]2[C@H](OC)[C@@H](OC)[C@H](O[C@H]3[C@H](OS(=O)(=O)O)[C@@H](OS(=O)(=O)O)[C@@H](O[C@H]4[C@H](OC)[C@@H](OC)[C@H](O[C@H]5[C@H](OS(=O)(=O)O)[C@@H](OS(=O)(=O)O)[C@@H](OC)O[C@@H]5COS(=O)(=O)O)O[C@H]4C(=O)O)O[C@@H]3COS(=O)(=O)O)O[C@@H]2C(=O)O)O[C@@H]1COS(=O)(=O)O)[C@@H](C)O)C(=O)N[C@@H](Cc1ccccc1)C(N)=O [Conjugate C2]	–	–	0.0776 nM	9.12 nM
CNC(=N)NCCC[C@H](NC(=O)[C@H](CC(C)C)NC(=O)NNC(=O)[C@H](Cc1ccccc1)NC(=O)[C@@H](NC(=O)[C@H](CC(N)=O)NC(=O)[C@H](Cc1c[nH]c2ccccc12)NC(=O)[C@H](CC(N)=O)NC(=O)[C@@H](Cc1ccc(O)cc1)NC(=O)CCCCn1cc(CCC(=O)NCCOCCOCCOCCOCC(=O)NCCOCCOCCOCCO[C@H]2[C@H](OC)[C@@H](OC)[C@@H](O[C@H]3[C@H](OC)[C@@H](OC)[C@H](O[C@H]4[C@H](OS(=O)(=O)O)[C@@H](OS(=O)(=O)O)[C@@H](O[C@H]5[C@H](OC)[C@@H](OC)[C@H](O[C@H]6[C@H](OS(=O)(=O)O)[C@@H](OS(=O)(=O)O)[C@@H](OC)O[C@@H]6COS(=O)(=O)O)O[C@H]5C(=O)O)O[C@@H]4COS(=O)(=O)O)O[C@@H]3C(=O)O)O[C@@H]2COS(=O)(=O)O)nn1)[C@@H](C)O)C(=O)N[C@@H](Cc1ccccc1)C(N)=O [Conjugate C6]	–	–	0.148 nM	5.62 nM
CNC(=N)NCCC[C@H](NC(=O)[C@H](CC(C)C)NC(=O)CNC(=O)[C@H](Cc1ccccc1)NC(=O)[C@@H](NC(=O)[C@H](CC(N)=O)NC(=O)[C@H](CCCCNC(=O)CCOCCOCCOCCOCCn1cc(CCC(=O)NCCOCCOCCOCCO[C@H]2[C@H](OC)[C@@H](OC)[C@@H](O[C@H]3[C@H](OC)[C@@H](OC)[C@H](O[C@H]4[C@H](OS(=O)(=O)O)[C@@H](OS(=O)(=O)O)[C@@H](O[C@H]5[C@H](OC)[C@@H](OC)[C@H](O[C@H]6[C@H](OS(=O)(=O)O)[C@@H](OS(=O)(=O)O)[C@@H](OC)O[C@@H]6COS(=O)(=O)O)O[C@H]5C(=O)O)O[C@@H]4COS(=O)(=O)O)O[C@@H]3C(=O)O)O[C@@H]2COS(=O)(=O)O)nn1)NC(=O)[C@H](CC(N)=O)NC(=O)[C@@H](N)Cc1ccc(O)cc1)[C@@H](C)O)C(=O)N[C@@H](Cc1ccccc1)C(N)=O [Conjugate C28]	–	–	0.141 nM	4.27 nM
CNC(=N)NCCC[C@H](NC(=O)[C@H](CC(C)C)NC(=O)CNC(=O)[C@H](Cc1ccccc1)NC(=O)[C@@H](NC(=O)[C@H](CC(N)=O)NC(=O)[C@H](Cc1ccccc1)NC(=O)[C@H](CC(N)=O)NC(=O)[C@H](Cc1ccc(O)cc1)NC(=O)CCCCn1cc(CCC(=O)NCCOCCOCCOCCO[C@H]2[C@H](OC)[C@@H](OC)[C@@H](O[C@H]3[C@H](OC)[C@@H](OC)[C@H](O[C@H]4[C@H](OS(=O)(=O)O)[C@@H](OS(=O)(=O)O)[C@@H](O[C@H]5[C@H](OC)[C@@H](OC)[C@H](O[C@H]6[C@H](OS(=O)(=O)O)[C@@H](OS(=O)(=O)O)[C@@H](OC)O[C@@H]6COS(=O)(=O)O)O[C@H]5C(=O)O)O[C@@H]4COS(=O)(=O)O)O[C@@H]3C(=O)O)O[C@@H]2COS(=O)(=O)O)nn1)[C@@H](C)O)C(=O)N[C@@H](Cc1ccccc1)C(N)=O [Conjugate C29]	0.407 nM	8.13 nM	–	–
CNC(=N)NCCC[C@H](NC(=O)[C@H](CC(C)C)NC(=O)NNC(=O)[C@H](Cc1ccccc1)NC(=O)[C@@H](NC(=O)[C@H](CC(N)=O)NC(=O)[C@@H]1C[C@@H](O)CN1C(=O)[C@@H](Cc1ccc(O)cc1)NC(=O)CCCCn1cc(CCC(=O)NCCOCCOCCOCCO[C@H]2[C@H](OC)[C@@H](OC)[C@@H](O[C@H]3[C@H](OC)[C@@H](OC)[C@H](O[C@H]4[C@H](OS(=O)(=O)O)[C@@H](OS(=O)(=O)O)[C@@H](O[C@H]5[C@H](OC)[C@@H](OC)[C@H](O[C@H]6[C@H](OC)[C@@H](OS(=O)(=O)O)[C@@H](OC)O[C@@H]6COS(=O)(=O)O)O[C@H]5C(=O)O)O[C@@H]4COS(=O)(=O)O)O[C@@H]3C(=O)O)O[C@@H]2COS(=O)(=O)O)nn1)[C@@H](C)O)C(=O)N[C@@H](Cc1c[nH]c2ccccc12)C(N)=O [Conjugate C30]	–	–	0.0479 nM	0.195 nM

More lines, main results first:

EC50 [2]	EC50 [3]	Compound	EC50 (pEC50, absence of human serum)	EC50 [1]
0.0776 nM	6.31 nM	CNC(=N)NCCC[C@H](NC(=O)[C@H](CC(C)C)NC(=O)NNC(=O)[C@H](Cc1ccccc1)NC(=O)[C@@H](NC(=O)[C@H](CC(N)=O)NC(=O)[C@H](Cc1c[nH]c2ccccc12)NC(=O)[C@H](CC(N)=O)NC(=O)[C@@H](Cc1ccc(O)cc1)Nc1c(NCCOCCOCCOCCOCC(=O)NCCOCCOCCOCCO[C@H]2[C@H](OC)[C@@H](OC)[C@@H](O[C@H]3[C@H](OC)[C@@H](OC)[C@H](O[C@H]4[C@H](OS(=O)(=O)O)[C@@H](OS(=O)(=O)O)[C@@H](O[C@H]5[C@H](OC)[C@@H](OC)[C@H](O[C@H]6[C@H](OS(=O)(=O)O)[C@@H](OS(=O)(=O)O)[C@@H](OC)O[C@@H]6COS(=O)(=O)O)O[C@H]5C(=O)O)O[C@@H]4COS(=O)(=O)O)O[C@@H]3C(=O)O)O[C@@H]2COS(=O)(=O)O)c(=O)c1=O)[C@@H](C)O)C(=O)N[C@@H](Cc1ccccc1)C(N)=O [Conjugate C3]	–	–
0.209 nM	2.45 nM	CNC(=N)NCCC[C@H](NC(=O)[C@H](CC(C)C)NC(=O)NNC(=O)[C@H](Cc1ccccc1)NC(=O)[C@@H](NC(=O)[C@H](CC(N)=O)NC(=O)[C@H](Cc1c[nH]c2ccccc12)NC(=O)[C@H](CC(N)=O)NC(=O)[C@H](Cc1ccc(O)cc1)NC(=O)COCCOCCOCCOCCn1cc(CCC(=O)NCCOCCOCCOCCO[C@H]2[C@H](OC)[C@@H](OC)[C@@H](O[C@H]3[C@H](OC)[C@@H](OC)[C@H](O[C@H]4[C@H](OS(=O)(=O)O)[C@@H](OS(=O)(=O)O)[C@@H](O[C@H]5[C@H](OC)[C@@H](OC)[C@H](O[C@H]6[C@H](OS(=O)(=O)O)[C@@H](OS(=O)(=O)O)[C@@H](OC)O[C@@H]6COS(=O)(=O)O)O[C@H]5C(=O)O)O[C@@H]4COS(=O)(=O)O)O[C@@H]3C(=O)O)O[C@@H]2COS(=O)(=O)O)nn1)[C@@H](C)O)C(=O)N[C@@H](Cc1ccccc1)C(N)=O [Conjugate C23]	–	–
0.151 nM	0.355 nM	CNC(=N)NCCC[C@H](NC(=O)[C@H](CC(C)C)NC(=O)NNC(=O)[C@H](Cc1ccccc1)NC(=O)[C@@H](NC(=O)[C@H](CC(N)=O)NC(=O)[C@@H]1C[C@@H](O)CN1C(=O)[C@@H](Cc1ccc(O)cc1)NC(=O)CCOCCOCCOCCOCCn1cc(CCC(=O)NCCOCCOCCOCCOCC(=O)NCCOCCOCCOCCO[C@H]2[C@H](OC)[C@@H](OC)[C@@H](O[C@H]3[C@H](OC)[C@@H](OC)[C@H](O[C@H]4[C@H](OS(=O)(=O)O)[C@@H](OS(=O)(=O)O)[C@@H](O[C@H]5[C@H](OC)[C@@H](OC)[C@H](O[C@H]6[C@H](OC)[C@@H](OS(=O)(=O)O)[C@@H](OC)O[C@@H]6COS(=O)(=O)O)O[C@H]5C(=O)O)O[C@@H]4COS(=O)(=O)O)O[C@@H]3C(=O)O)O[C@@H]2COS(=O)(=O)O)nn1)[C@@H](C)O)C(=O)N[C@@H](Cc1c[nH]c2ccccc12)C(N)=O [Conjugate C32]	–	–
0.0589 nM	0.912 nM	CNC(=N)NCCC[C@H](NC(=O)[C@H](CC(C)C)NC(=O)NNC(=O)[C@H](Cc1ccccc1)NC(=O)[C@@H](NC(=O)[C@H](CC(N)=O)NC(=O)[C@@H]1C[C@@H](O)CN1C(=O)[C@@H](Cc1ccc(O)cc1)NC(=O)CCOCCOCCOCCOCCn1cc(CCC(=O)NCCOCCOCCOCCOCC(=O)NCCOCCOCCOCCO[C@H]2[C@H](OC)[C@@H](OC)[C@@H](O[C@H]3[C@H](OC)[C@@H](OC)[C@H](O[C@H]4[C@H](OS(=O)(=O)O)[C@@H](OS(=O)(=O)O)[C@@H](O[C@H]5[C@H](OC)[C@@H](OC)[C@H](O[C@H]6[C@H](OS(=O)(=O)O)[C@@H](OS(=O)(=O)O)[C@@H](OC)O[C@@H]6COS(=O)(=O)O)O[C@H]5C(=O)O)O[C@@H]4COS(=O)(=O)O)O[C@@H]3C(=O)O)O[C@@H]2COS(=O)(=O)O)nn1)[C@@H](C)O)C(=O)N[C@@H](Cc1c[nH]c2ccccc12)C(N)=O [Conjugate C33]	–	–
0.0126 nM	0.0912 nM	CO[C@H]1O[C@H](COS(=O)(=O)O)[C@@H](O[C@@H]2O[C@@H](C(=O)O)[C@@H](O[C@H]3O[C@H](COS(=O)(=O)O)[C@@H](O[C@@H]4O[C@H](C(=O)O)[C@@H](O[C@H]5O[C@H](COS(=O)(=O)O)[C@@H](OCCOCCOCCOCCNC(=O)CCc6cn(CCCCC(=O)N[C@H](Cc7ccc(O)cc7)C(=O)N7C[C@H](O)C[C@H]7C(=O)N[C@@H](CC(N)=O)C(=O)N[C@H](C(=O)N[C@@H](Cc7ccccc7)C(=O)NNC(=O)N[C@@H](CC(C)C)C(=O)N[C@@H](CCCNC(=N)N)C(=O)N[C@@H](Cc7c[nH]c8ccccc78)C(N)=O)[C@@H](C)O)nn6)[C@H](OC)[C@H]5OC)[C@H](OC)[C@H]4OC)[C@H](OS(=O)(=O)O)[C@H]3OS(=O)(=O)O)[C@H](OC)[C@H]2OC)[C@H](OC)[C@H]1OS(=O)(=O)O [Conjugate C36]	–	–
0.0126 nM	1.15 nM	CO[C@H]1O[C@H](COS(=O)(=O)O)[C@@H](O[C@@H]2O[C@@H](C(=O)O)[C@@H](O[C@H]3O[C@H](COS(=O)(=O)O)[C@@H](O[C@@H]4O[C@H](C(=O)O)[C@@H](O[C@H]5O[C@H](COS(=O)(=O)O)[C@@H](OCCOCCOCCOCCNC(=O)CCc6cn(CCCCC(=O)N[C@H](Cc7ccc(O)cc7)C(=O)N7C[C@H](O)C[C@H]7C(=O)N[C@@H](CC(N)=O)C(=O)N[C@H](C(=O)N[C@@H](Cc7ccccc7)C(=O)NNC(=O)N[C@@H](CC(C)C)C(=O)N[C@@H](CCCNC(=N)N)C(=O)N[C@@H](Cc7c[nH]c8ccccc78)C(N)=O)[C@@H](C)O)nn6)[C@H](OC)[C@H]5OC)[C@H](OC)[C@H]4OC)[C@H](OS(=O)(=O)O)[C@H]3OS(=O)(=O)O)[C@H](OC)[C@H]2OC)[C@H](OS(=O)(=O)O)[C@H]1OS(=O)(=O)O [Conjugate C37]	–	–

— patent US9127038B2, “Kisspeptide-pentasaccharide conjugates” (Merck Sharp & Dohme Corp., priority 2011, dated 2015)
